“Also recorded” adds a separate entry of the source. Read-outs that look alike come from different tables or passages of the source. Peptide text beside a SMILES is read from it. * marks the point of attachment. βNA = c1ccc2cc(N*)ccc2c1
What was measured:
[1] = tested on: S.Tm wild-type SL1344, MAR1 and S10801; experiment: microbe, parasite or virus in culture; format: cell-based, Salmonella enterica serovar Typhimurium; conditions: for MIC: Salmonella enterica
Method: Increased expression or function of efflux pumps often contributes to clinical multidrug resistance. Therefore, whether the EPMs re-sensitize two multidrug resistant strains of S.Tm to tetracycline was tested. Tetracycline is an antibiotic exported by AcrAB. The MAR1 strain is derived from wild-type SL1344 was selected by exposure to tetracycline, and has increased expression of the AcrAB efflux pump. S10801 is an MDR strain isolated from the mesenteric lymph node of a septic calf and is resistant to tetracycline, ampicillin, chloramphenicol, nalidixic acid, and triple sulfa. The basis of multi-drug resistance in this strain is unknown.
Overnight Salmonella cultures were washed 3 times in PBS and diluted to an OD of 0.01 in Mueller Hinton Broth in 96-well flat bottom plates. Compound was added using a pin tool (CyBio) or manually, yielding a final concentration of no more than 1% DMSO. Plates were grown at 37° C. shaking and OD600 was monitored using a BioTek Eon incubator shaker microplate absorbance reader. For experiments in defined media, bacteria were grown in M9 minimal media supplemented with 100 mM Tris pH 7.4, 0.35% glycerol, 0.002% histidine, 10 mM MgCl2, and 0.1% casamino acids. Where indicated, media was supplemented with 5 μg/ml polymyxin B or 0.2 mM H2O2. For experiments with LL-37, bacteria were grown in M9 minimal media supplemented with 0.4% dextrose, 0.004% histidine, 1 mM MgSO4, and 5 μg/ml LL-37. For checkerboard assays, MIC was defined as the concentration at which no growth was visually observed.

[2] = tested on: Salmonella enterica serovar Typhimurium (S.Tm) within RAW 264.7 murine macrophages; experiment: SAFIRE: fluorescence microscopy assay of S.Tm load within macrophages; format: cell-based; conditions: for percentage of infected macrophages (validated hit): among the 309 hits; for hit status in SAFIRE screen: Maybridge HitFinder v11 library screened at 25 μM
Method: A high-content, high-throughput fluorescence microscopy-based screening platform to assay S.Tm load within macrophages was developed (FIG. 1A). RAW 264.7 murine macrophages, a widely used cell line for bacterial infection studies, were infected with bacteria in a standard gentamicin protection assay. The Salmonella expressing GFP driven by the sifB promoter was incubated with the compound beginning at 2 hours post-infection. At 18 hours post-infection, cells were stained with MitoTracker Red CMXRos as a marker of macrophage vitality and processed for fluorescence microscopy. Stained with DAPI. A MATLAB®-based algorithm was developed to quantify infection (FIG. 1B) and compared to statistics to describe infection. Percentage of infected cells was determined by counting the proportion of macrophages within an image with at least 2 GFP+ pixels. Infection area was calculated by normalizing the number of GFP+ pixels within a cell to the cell's total area, then averaging across all cells in an image. To evaluate the approach, 2 μg/ml rifampicin in 96-well and 384-well plates was tested in three independent replicates. The Z′-factor was employed as a measure of assay reproducibility. Numbers close to 1 indicated high reproducibility. For percentage of infected macrophages, the Z′-factor was 0.59 and 0.48 in 96-well and 384-well plates, respectively, compared with 0.66 and 0.38 for infection area. The optimal Z′-factor threshold for high-throughput screening was 0.5; however, values above 0 were considered marginal but feasible. Therefore, the percentage of infected macrophages statistic was used.
The 14,400 compound library Maybridge HitFinder™ v11 was screened, which has been extensively screened against mammalian and microbial targets. The library was screened in duplicate at 25 μM in 384-well plates (FIG. 1C). Data were normalized using the B-score method to remove positional variation. The significance of B-scores was calculated using a modified t-test assuming an inverse gamma distribution of variances. Using a dual threshold of B-score greater than 1 and standard deviation from the mean and p-value less than 0.05, 908 compounds (6.3%) were identified that decreased or increased the percentage of infected macrophages. […] Compounds that altered infection by at least 25% in 96-well plates were considered validated hits.
For high-throughput screening and validation, 7×10^3 macrophages in 40 μL or 3×10^4 macrophages in 100 μL were seeded in 384- or 96-well black-walled, glass-bottomed plates (Brooks Automation). […] Forty-five minutes after bacterial addition, 20 or 50 μL gentamicin was added to a final concentration of 40 μg/mL. […] At 2 hours post-infection, 200 or 500 nL compound was added using a pin tool (CyBio) to yield a final concentration of 25 μM. Each assay plate included rifampicin and DMSO controls. In some experiments, media was removed and replaced with fresh medium containing 40 μg/mL gentamicin and the indicated concentrations of drugs. At 17.5 hours post-infection, PBS containing MitoTracker Red CMXRos (Life Technologies) was added to yield a final concentration of 300 nM (384-well) or 100 nM (96-well). Thirty minutes later, 16% paraformaldehyde was added to a final concentration of 1-2% and incubated at room temperature for 15 minutes. Wells were washed twice with PBS and stained for 20 minutes with 1 μM DAPI; wells were washed twice and stored in 90% glycerol in PBS until imaging.
High magnification images were acquired on an Olympus IX81 inverted widefield microscope. For screening imaging, three-color images were acquired at 10× or 20× on a Cellomics ArrayScan VTI (Thermo) and exported to DIB files. At least two images were taken per well for all experiments. […]

[3] = Log D, solubility and predicted bioavailability; format: physicochemical; conditions: high concentrations
S.Tm efflux pumps [4] = experiment: Nile Red efflux assay; format: cell-based, Salmonella enterica serovar Typhimurium
Text: Because Hoechst and other dyes commonly used to assess efflux bind cellular components, direct measurement of efflux is not possible using these methods; instead, the Hoechst assay measures dye accumulation, the net result of entry and efflux. Further, the slow off-rate of Hoechst entails that efflux pumps have no effect on dye already bound to DNA. As a result, compounds which increase Hoechst accumulation may actually enhance dye entry by altering porins or disrupting the membrane. To more specifically measure efflux pump activity, a second technique was employed using the dye Nile Red, a lipophilic membrane-partitioning dye which fluoresces in nonpolar environments. Because Nile Red is not known to bind cellular components, to directly observe efflux cells were preloaded with the dye in the absence of glucose to reduce efflux pump activity (FIG. 7A). Upon addition of glucose, bacteria rapidly effluxed Nile Red and fluorescence returned to baseline levels (FIG. 7B, top panel). […] The initial measured fluorescence was lower for DMSO-treated cells (upper dotted line) than for PAβN-treated cells due to glucose-independent efflux during sample preparation (FIG. 8A). Next, it was determined whether efflux pump activity is restored after removal of PAβN. Bacteria were incubated with compound for 15 minutes, pelleted and resuspended in buffer lacking compound, and then stimulated with glucose (FIGS. 7C, 7E).
Nile Red assays were adapted from an established protocol. Briefly, overnight Salmonella cultures were grown in Mueller-Hinton cation-adjusted broth (Sigma), washed, and resuspended at an OD600 of 2.0. Cells were incubated in 10 μM Nile Red for 3 hours at 37° C. with aeration, then moved to room temperature for 1 hour. After pelleting at 2000× g, dye-loaded cells were aliquoted and combined with compound at the indicated concentrations. Two hundred microliters was loaded into 96-well black walled plates (Greiner) and read using a Varioskan Flash Multimode Reader with 540 nm excitation and 625 nm emission filters. We observed that during loading into plates (˜20 minutes), bacteria were able to efflux Nile Red even in the absence of glucose (FIG. 8A). To activate efflux, glucose was added to a final concentration of 2 mM. In some experiments, bacteria were treated with drug for 15 minutes, pelleted at 16,000×g, resuspended in fresh buffer, and stimulated with 2 mM glucose. All wash and incubation steps were performed in PBS with 1 mM MgCl2; incubations were performed in glass tubes to reduce adhesion of Nile Red.

S.Tm efflux pumps [5] = experiment: Hoechst 33342 accumulation assay; format: cell-based, Salmonella enterica serovar Typhimurium; conditions: wild-type S.Tm, 60 minutes
Method: Efflux pumps (EPs) represent a key pathogen virulence strategy to protect against host antimicrobials as well as therapeutic antibiotics. […] To uncover putative EPMs within our collection of hits, 58 repurchased compounds were screened in a Hoechst accumulation assay. Bacteria were incubated with Hoechst 33342, a dye which fluoresces when bound to DNA.
Hoechst accumulation assays were performed essentially as described in the literature. Briefly, overnight Salmonella cultures were washed 3 times in PBS and diluted to an OD of 0.1 in PBS with 2.5 μM Hoechst 33342 in the presence of the indicated concentrations of compounds. Fluorescence was monitored on a Biotek Synergy 2 with a 360/40 nm excitation filter and 460/40 nm emission filter. The maximum Hoechst fluorescence over 60 minutes of incubation was normalized to the signal from the equivalent number of heat-killed bacteria, after subtraction of autofluroescent signal determined from compound incubated in the absence of bacteria. Curve fitting to determine EC50s was performed using GraphPad Prism.

S.Tm = experiment: Swimming assay in soft agar (proton motive force); format: cell-based, Salmonella enterica serovar Typhimurium; conditions: 400× the MIC (4 μM)
Method: One way to inhibit efflux pumps is to disrupt the proton motive force, which is required for transport by some EPs. […] Bacteria were injected into the center of 0.25% agar plates, and 10 μl of compound was added to paper disks on the periphery. […] Also ampicillin and rifampicin were tested. We plotted the halo radius versus the concentration as the fold above the MIC (FIG. 9G). […] Next, it was determined whether PAβN inhibited swimming; PAβN is thought to disrupt membranes over long incubations. […] Finally, the EPMs at […] were tested (FIGS. 9D-F).
Saturated overnight cultures were diluted to an OD600 of 0.01 in LB and 1 μL was injected into the center of low agar (0.25%) LB plates. Ten microliters of the indicated compounds were added to sterilized Whatman paper disks (diameter 0.7 cm) placed equidistant from the plate center.

CN(C)[C@@H]1C(O)=C(C(N)=O)C(=O)[C@@]2(O)C(O)=C3C(=O)c4c(O)cccc4[C@@](C)(O)[C@H]3C[C@@H]12 [tetracycline]
increase in tetracycline MIC over wild type ([1]; MAR1): 2 fold | increase in tetracycline MIC over wild type ([1]; S10801): 64 fold | MIC ([1]; read-out: tetracycline MIC, MAR1): 4 mg/L | MIC ([1]; read-out: tetracycline MIC, S10801): 128 mg/L | MIC ([1]; read-out: tetracycline MIC, wild-type S.Tm): 2 mg/L

O=C(N[C@H](CO)[C@H](O)c1ccc([N+](=O)[O-])cc1)C(Cl)Cl [Chloramphenicol]
percentage of infected macrophages (validated hit) ([2]; 25 μM): decreased the percentage of infected macrophages | hit status in SAFIRE screen [2]: Chloramphenicol^1

Br.NC(N)=NCCCC(NC(=O)C(N)Cc1ccccc1)C(=O)Nc1ccc2ccccc2c1 (stereo not drawn) [PAβN, Phe-Arg β-naphthylamide, reference compound] (H-Phe-Arg-βNA; configuration not given here)
solubility in cell culture media [3]: insolubility of high concentrations in cell culture media | glucose-activated efflux of Nile Red (S.Tm efflux pumps [4]; 500 μM): inhibited glucose-activated efflux | Nile Red efflux, dose response (S.Tm efflux pumps [4]; 7 minutes post-glucose addition): dose dependent inhibition of Nile Red efflux; also recorded: reduced the rate and extent of Nile Red export | Nile Red efflux after washout of compound (S.Tm efflux pumps [4]; 15 minutes with compound, washed, then glucose): partially restored Nile Red export | Nile Red fluorescence in the absence of glucose (basal loss) (S.Tm efflux pumps [4]; no glucose): inhibit basal loss of Nile Red | Hoechst accumulation / fluorescence (S.Tm efflux pumps [5]): Hoechst accumulation increased | Hoechst accumulation / fluorescence (S.Tm efflux pumps [5]; listed as PaβN): higher levels of fluorescence | decrease of the tetracycline MIC ([1]; 250 μM (⅛ MIC), both strains MAR1 and S10801): 4 fold

Nc1c2ccccc2nc2ccccc12 [9-aminoacridine]
percentage of infected macrophages (validated hit) ([2]; 25 μM): decreased the percentage of infected macrophages | hit status in SAFIRE screen [2]: 9-aminoacridine^1

CC1(C)S[C@@H]2[C@H](N)C(=O)N2[C@H]1C(=O)O [6-aminopenicillinate]
activity in the screen ([2]; 25 μM): modest activity | average B-score from the screen ([2]; 25 μM, duplicate, threshold −2.17): −2.29 | hit status in SAFIRE screen [2]: 6-aminopenicillinate^2

O=C(O)c1cn(C2CC2)c2cc(N3CCNCC3)c(F)cc2c1=O [ciprofloxacin, reference compound]
halo in swimming assay (S.Tm): formed a halo similar in size to that of CCCP

CN(C)CCCN1c2ccccc2CCc2ccc(Cl)cc21 [Clomipramine]
hit status in SAFIRE screen [2]: Clomipramine^1

O=C(NC1CCN(CCc2c[nH]c3ccccc23)CC1)c1ccccc1 [Indoramin]
hit status in SAFIRE screen [2]: Indoramin^1

From patent US11110080B2, “Small molecule inhibitors of bacterial efflux pumps and methods of using same” (The Regents of the University of Colorado, a body Corporate, priority 2017, dated 2021)
